Assay results: PMC5729429, “Gimatecan exerts potent antitumor activity against gastric cancer in vitro and in vivo via AKT and MAPK signaling pathways” (Journal of Translational Medicine, 2017)
pIC50: −log10 of the molar value. Structures can show the parent of a compound that is named as a salt.

Experiments:
HGC27 cells = assay: Cell viability assay (CCK-8), HGC27; format: cell-based; conditions: Homo sapiens, HGC-27, Fig. S1A 48 h exposure, 0–1 µM, read-out: IC50 antiproliferative effect
Experimental: (§1) Human GC cell lines SNU-1, HGC27 and MGC803 were purchased from Peking Union Medical College, and the NCI-N87 cell line was a gift from You-yong Lv, Ph.D. (Peking University Cancer Hospital and Institute). Cells were cultured in RPMI 1640 medium and Dulbecco’s Modified Eagle Medium (Gibco-BRL, MD, USA), respectively, supplemented with 10% fetal bovine serum (Gibco-BRL), 100 U/ml penicillin (Gibco-BRL) and […] streptomycin (Gibco-BRL). Cells were incubated in a humidified incubator (37 °C) supplemented with 5% CO2.
(§2) SNU-1, HGC27, MGC803 and NCI-N87 cells (5000 cells/well) were seeded in 96-well plates and incubated overnight in complete medium, followed by exposure to gimatecan (0–1 µM) or irinotecan (0–1 µM) for 24, 48, or 72 h. Cell viability was measured using a Cell Counting Kit-8 (Dojindo, Kumamoto, Japan) according to the manufacturer’s instructions. Absorbance at 450 nm was measured using a microplate spectrophotometer. All experiments were repeated at least three times.

Bak, Bcl-2, cleaved PARP = assay: Western blot of Bak, Bcl-2, PARP in GC cells; format: cell-based, human; conditions: SNU-1 and HGC27
Experimental: SNU-1, HGC27 and NCI-N87 cells were starved in serum-free medium overnight, exposed to inhibitors for 48 h and harvested at 70–80% confluence. Total protein was extracted from cells or xenograft tissues on ice, using RIPA Lysis Buffer (Beyotime, Shanghai, China) supplemented with complete protease inhibitor and phosphatase inhibitor cocktail (Roche, Basel, Switzerland). Protein concentration was measured using a BCA Protein Assay Kit (Beyotime, Shanghai, China), and 50 μg protein from each sample was separated by 10% SDS-PAGE. After transfer to nitrocellulose membranes (GE Healthcare, Piscataway, NJ), samples were incubated with corresponding primary antibodies diluted in 5% BSA at 4 °C overnight and then with secondary antibodies at room temperature for 1 h. […] Western-blotting bands were quantified and normalized by ImageJ software.
Cells were treated with gimatecan (0–1 µM) and irinotecan (0–1 µM) for 24 h and stained with Annexin V-PE/7-AAD. Sums of percentages of early apoptosis (Q3) and late apoptosis (Q2) were calculated as the total apoptosis ratios. c, d Pro- and anti-apoptotic proteins including Bcl-2, Bak, PARP and cleaved PARP were assessed by western-blotting in SNU-1 and NCI-N87 cells. Western-blotting bands were quantified and normalized by ImageJ. […]

SNU-1 cells = assay: Cell viability assay (CCK-8), SNU-1; format: cell-based; conditions: Homo sapiens, SNU1, Fig. 1a 48 h exposure, 0–1 µM, read-out: IC50 antiproliferative effect
Experimental: as §1, §2

| SMILES | pIC50 (HGC27 cells) | Bak, Bcl-2 and PARP protein after treatment (Bak, Bcl-2, cleaved PARP) | pIC50 (SNU-1 cells) |
| --- | --- | --- | --- |
| CC[C@@]1(O)C(=O)OCc2c1cc1n(c2=O)Cc2c-1nc1ccccc1c2/C=N/OC(C)(C)C [Gimatecan, 7-t-butoxyiminomethylcamptothecin] | 8.79 | Bak and cleaved PARP expression was increased and Bcl-2 expression was inhibited | 8.71 |
| CCc1c2c(nc3ccc(OC(=O)N4CCC(N5CCCCC5)CC4)cc13)-c1cc3c(c(=O)n1C2)COC(=O)[C@]3(O)CC [Irinotecan, irinotecan hydrochloride] | 6.82 | apoptosis was not induced | 5.49 |
